Data from patent US20240228512A1, “ACYCLIC OXAZEPINE COMPOUNDS COMPRISING A 6-AZA MOIETY AND USES THEREOF” (Genentech, Inc., priority 2022, published 2024).

Columns and labels:
SW620 cells = experiment: SW620 3D proliferation assay (CellTiter-Glo); assay type: cell-based; conditions: Homo sapiens, SW-620, 168 h, SW620, 3D culture, 7 days, read-out: SW620 CTG IC50
Procedure, shortened: (§1)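 Cells were seeded in ultra-low attachment plates (3000 or 1000 cells/well for 96- or 384-well format) in RPMI-1640, 10% FBS, 2 mM L-glutamine and cultured overnight at 37 °C/5% CO2 to form spheroids. Compounds were added by 333-fold dilution from DMSO for 7 days. Viability was read as CellTiter-Glo 3D ATP luminescence, with IC50 from a 4-parameter logistic fit.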

HPAC cells = experiment: HPAC 3D proliferation assay (CellTiter-Glo); assay type: cell-based; conditions: Homo sapiens, 168 h, 3D culture, 7 days, read-out: HPAC CTG IC50
Procedure, shortened: as §1

H1975 cells = experiment: H1975 CTG proliferation assay; assay type: cell-based; conditions: Homo sapiens, NCI-H1975, H1975, CTG
SW620 PERK = SW620 PERK assay; assay type: cell-based; conditions: Homo sapiens, SW-620, SW620, PERK
SW480 cells = experiment: SW480 CTG proliferation assay; assay type: cell-based; conditions: Homo sapiens
[1] = target: recombinant human mutant KRas G12V (SOS1-mediated nucleotide exchange) (Homo sapiens (Human), UniProt P01116, G12V); experiment: KRAS biochemical assay, BODIPY-GDP exchange TR-FRET (G12V-GDP HTRF)
recombinant human mutant KRas G12V (SOS1-mediated nucleotide exchange), sequence (P01116-2 other isoform, or with tags, fused parts or gaps G12V): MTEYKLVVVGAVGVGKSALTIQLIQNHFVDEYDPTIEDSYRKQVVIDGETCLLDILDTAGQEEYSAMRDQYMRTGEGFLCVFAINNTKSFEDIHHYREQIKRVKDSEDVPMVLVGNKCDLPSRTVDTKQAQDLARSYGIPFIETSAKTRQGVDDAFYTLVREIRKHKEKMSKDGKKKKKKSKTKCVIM

[2] = target: recombinant human KRAS wild type (SOS1-mediated nucleotide exchange) (Homo sapiens (Human), UniProt P01116); experiment: KRAS biochemical assay, BODIPY-GDP exchange TR-FRET (WT-GDP HTRF)
recombinant human KRAS wild type (SOS1-mediated nucleotide exchange), sequence (P01116-2 other isoform, or with tags, fused parts or gaps): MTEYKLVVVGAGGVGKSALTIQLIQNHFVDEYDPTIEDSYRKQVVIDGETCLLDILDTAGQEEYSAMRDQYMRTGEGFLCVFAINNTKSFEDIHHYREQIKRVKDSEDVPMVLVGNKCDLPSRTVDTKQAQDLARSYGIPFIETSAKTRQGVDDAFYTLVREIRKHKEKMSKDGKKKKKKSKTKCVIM

Row | Structure (SMILES) | IC50 (SW620 cells) [nM] | IC50 (H1975 cells) [nM] | IC50 (SW620 PERK) [nM] | IC50 (SW480 cells) [nM] | IC50 [1] [nM] | IC50 [2] [nM] | IC50 (HPAC cells) [nM]
1 | Cc1cc(N)c(F)c(-c2nc3c4c(nc(OC[C@@]56CCCN5C[C@H](F)C6)nc4c2F)N([C@H](C)c2cccnc2N)CCO3)c1C(F)(F)F [Example 15, 3-((1R)-1-(5-(3-amino-2-fluoro-5-methyl-6-(trifluoromethyl)phenyl)-4-fluoro-2-(((2R,7aS)-2-fluorotetrahydro-1H-pyrrolizin-7a(5H)-yl)methoxy)-8,9-dihydro-10H-7-oxa-1,3,6,10-tetraazacyclohepta[de]naphthalen-10-yl)ethyl)pyridin-2-amine] | 0.74 | 2.59 | 2.24 | 10 |  |  | 8.84
2 | C#Cc1cccc2cc(O)cc(-c3nc4c5c(nc(OC[C@@H]6CC[C@H]7COCCN76)nc5c3F)N([C@H](C)c3cccnc3N)CCO4)c12 [Example 17, 4-(10-((R)-1-(2-aminopyridin-3-yl)ethyl)-4-fluoro-2-(((6S,8aS)-hexahydro-1H-pyrrolo[2,1-c][1,4]oxazin-6-yl)methoxy)-9,10-dihydro-8H-7-oxa-1,3,6,10-tetraazacyclohepta[de]naphthalen-5-yl)-5-ethynyinaphthalen-2-ol] | 13.7 | 9.15 | 4.33 | 110 |  |  | 228
3 | Cc1cc(N)c(F)c(-c2nc3c4c(nc(OC[C@@H]5CC[C@H]6COCCN65)nc4c2F)N([C@H](C)c2cccnc2N)CCO3)c1C(F)(F)F [Example 22, 3-((1R)-1-(5-(3-amino-2-fluoro-5-methyl-6-(trifluoromethyl)phenyl)-4-fluoro-2-(((6S,8aS)-hexahydro-1H-pyrrolo[2,1-c][1,4]oxazin-6-yl)methoxy)-8,9-dihydro-10H-7-oxa-1,3,6,10-tetraazacyclohepta[de]naphthalen-10-yl)ethyl)pyridin-2-amine] | 6.45 | 48.7 | 6.32 | 24 |  |  | 67
4 | Cc1c(F)c(N)c(F)c(-c2nc3c4c(nc(OC[C@@]56CCCN5C[C@H](F)C6)nc4c2F)N([C@H](C)c2cccnc2N)CCO3)c1C(F)(F)F [Example 12, 3-((1R)-1-(5-(3-amino-2,4-difluoro-5-methyl-6-(trifluoromethyl)phenyl)-4-fluoro-2-(((2R,7aS)-2-fluorotetrahydro-1H-pyrrolizin-7a(5H)-yl)methoxy)-8,9-dihydro-10H-7-oxa-1,3,6,10-tetraazacyclohepta[de]naphthalen-10-yl)ethyl)pyridin-2-amine] | 5.63 | 59.4 | 1.62 | 2.8 |  |  | 14.7
5 | C#Cc1cccc2cc(O)cc(-c3nc4c5c(nc(OCC67CCN6CC(F)(F)C7)nc5c3F)N([C@H](C)c3cccnc3N)CCO4)c12 (stereo partly drawn) [Example 1, 4-(10-((R)-1-(2-aminopyridin-3-yl)ethyl)-2-((3,3-difluoro-1-azabicyclo[3.2.0]heptan-5-yl)methoxy)-4-fluoro-9,10-dihydro-8H-7-oxa-1,3,6,10-tetraazacyclohepta[de]naphthalen-5-yl)-5-ethynyinaphthalen-2-ol] | 7 | 47.4 | 1.42 | 26 |  |  | 144
6 | Cc1c(F)c(N)cc(-c2nc3c4c(nc(OC[C@@H]5CC[C@H]6COCCN65)nc4c2F)N([C@H](C)c2cccnc2N)CCO3)c1C(F)(F)F [Example 16, 3-((R)-1-(5-(5-amino-4-fluoro-3-methyl-2-(trifluoromethyl)phenyl)-4-fluoro-2-(((6S,8aS)-hexahydro-1H-pyrrolo[2,1-c][1,4]oxazin-6-yl)methoxy)-8,9-dihydro-10H-7-oxa-1,3,6,10-tetraazacyclohepta[de]naphthalen-10-yl)ethyl)pyridin-2-amine] | 3.77 | 31.1 | 2.53 | 10 |  |  | 30.2

Second part, led by results:

Row | IC50 (SW620 cells) [nM] | IC50 (H1975 cells) [nM] | IC50 (SW620 PERK) [nM] | IC50 (SW480 cells) [nM] | IC50 [1] [nM] | IC50 [2] [nM] | Structure (SMILES) | IC50 (HPAC cells) [nM]
7 | 5.33 | 283 | 2.93 | > 200 | 0.099 | 0.225 | Cc1c(F)c(N)nc(-c2nc3c4c(nc(OC[C@@]56CCCN5C[C@H](F)C6)nc4c2F)N([C@H](C)c2cccnc2N)CCO3)c1C(F)(F)F [Example 604, 6-(10-((R)-1-(2-aminopyridin-3-yl)ethyl)-4-fluoro-2-(((2R,7aS)-2-fluorotetrahydro-1H-pyrrolizin-7a(5H)-yl)methoxy)-9,10-dihydro-8H-7-oxa-1,3,6,10-tetraazacyclohepta[de]naphthalen-5-yl)-3-fluoro-4-methyl-5-(trifluoromethyl)pyridin-2-amine] | 26.5
8 | 5.72 | 14500 | 5.62 | 58 | 0.21 | 0.415 | Cc1cc(N)c(F)c(-c2nc3c4c(nc(OC[C@@]56CCCN5C[C@]5(CC5(F)F)C6)nc4c2F)N([C@H](C)c2nccnc2N)CCO3)c1C(F)(F)F [Example 609] | 34
9 | 1.92 | 951 | 2.02 | 18 | 0.14 | 0.175 | Cc1nc(N)cc(-c2nc3c4c(nc(OC[C@@]56CCCN5C[C@]5(CC5(F)F)C6)nc4c2F)N([C@H](C)c2cccnc2N)CCO3)c1C(F)(F)F [Example 615] | 12.3
10 | 3.3 | 4300 | 2.29 | 50 |  |  | C[C@H](c1cccnc1N)N1CCOc2nc(-c3cc(N)c(F)c(F)c3C(F)(F)F)c(F)c3nc(OC[C@@]45CCCN4C[C@H](F)C5)nc1c23 [Example 623, 3-((R)-1-(5-(5-amino-3,4-difluoro-2-(trifluoromethyl)phenyl)-4-fluoro-2-(((2R,7aS)-2-fluorotetrahydro-1H-pyrrolizin-7a(5H)-yl)methoxy)-8,9-dihydro-10H-7-oxa-1,3,6,10-tetraazacyclohepta[de]naphthalen-10-yl)ethyl)pyridin-2-amine] | 14.1
11 | 8.81 | 83.1 | 27.6 | 110 |  |  | C[C@H](c1cccnc1N)N1CCOc2nc(-c3cc(O)cc4cccc(F)c34)c(F)c3nc(OC[C@@]45CCCN4C[C@H](F)C5)nc1c23 [Example 25, 4-(10-((R)-1-(2-aminopyridin-3-yl)ethyl)-4-fluoro-2-(((2R,7aS)-2-fluorotetrahydro-1H-pyrrolizin-7a(5H)-yl)methoxy)-9,10-dihydro-8H-7-oxa-1,3,6,10-tetraazacyclohepta[de]naphthalen-5-yl)-5-fluoronaphthalen-2-ol] | 250
12 | 1020 | 5170 | 466 | 700 |  |  | C[C@H](c1cccnc1N)N1CCOc2nc(-c3cccc4sc(N)nc34)c(F)c3nc(OC[C@@]45CCCN4C[C@H](F)C5)nc1c23 [Example 24, 4-(10-((R)-1-(2-aminopyridin-3-yl)ethyl)-4-fluoro-2-(((2R,7aS)-2-fluorotetrahydro-1H-pyrrolizin-7a(5H)-yl)methoxy)-9,10-dihydro-8H-7-oxa-1,3,6,10-tetraazacyclohepta[de]naphthalen-5-yl)benzo[d]thiazol-2-amine] | 2000
